Three compounds from the NIST ThermoML archive (doi:10.1016/j.tca.2019.178308) can be followed below.

Series [1] can be described thus: wn = mass fraction of the nth substance listed. Conditions: 304.15 K, 100 kPa, Liquid, transient hot wire.
For series [2] the following is noted: 304.15 K; 100 kPa; Liquid; transient hot wire.

± gives the expanded uncertainty stated by the source.

For `CCCCCCCCCCCCOS(=O)(=O)[O-].[Na+]` [sodium dodecyl sulfate] + O, the thermal conductivity in series [1] (w1 = 0.001) was 0.589 ± 0.024 W/m/K; in series [1] (w1 = 0.003) it was 0.538 ± 0.022 W/m/K; in series [1] (w1 = 0.005), 0.537 ± 0.022 W/m/K; in series [1] (w1 = 0.007) it was 0.499 ± 0.02 W/m/K.

Turning to `O` [water], the thermal conductivity in series [2] was found to be 0.613 ± 0.025 W/m/K.

`O` [water] + CCCCCCCCCCCCOS(=O)(=O)[O-].[Na+]: the thermal conductivity in series [1] (w2 = 0) stood at 0.613 ± 0.025 W/m/K.
